Laboratory results as given in patent publication US4361578A, “D-Homosteroids” (priority 1980, dated 1982).

Test system: 5α-reductase
Experiment: Inhibition of 5α-reductase in vivo (castrated male rats, organ weights and LH/FSH after 10 daily doses)
Parameters: species or system albino rats
Protocol: The in vivo testing was carried out as follows:
Adult male albino rats weighing 200 g were castrated. Two hours later they received the first of 10 daily dosages of the test substance suspended in 0.5% carboxymethylcellulose, 0.4% Tween 80 and 0.9% benzyl alcohol in physiological sodium chloride solution. Three hours after the last medication on the tenth day of treatment, the animals were decapitated, the blood from the body was collected, and the seminal vesicles, the ventral prostate and the Levator ani muscle were removed and weighed. The results are given as ng of NIAMDD-RP-1/ml.
VP: Ventral prostrate, SV: Seminal vesicle, MLA: Levator ani muscle
LH: Luteinizing hormone, FSH: Follicle stimulating hormone

[1] = T sc 0.5 mg/kg alone, experiment with F
[2] = T sc 0.5 mg/kg alone, experiment with L po
[3] = Testosterone sc 0.5 mg/kg alone, experiment with D
[4] = TP 0.5 mg/kg alone, experiment with A
[5] = TP sc 0.5 mg/kg alone, experiment with L sc
[6] = A sc 15 mg/kg + TP sc 0.5 mg/kg
[7] = L sc 15 mg/kg + TP sc 0.5 mg/kg

C[C@]12CC[C@H]3[C@@H](CCC4=CC(=O)CC[C@@]43C)[C@@H]1CC[C@@H]2O [T, Testosterone]
LH (luteinizing hormone) [1]: 96 ± 37 ng/mL | MLA (Levator ani muscle weight) [1]: 126 ± 7 mg | SV (seminal vesicle weight) [1]: 85 ± 7 mg | VP (ventral prostate weight) [1]: 128 ± 12 mg | MLA (Levator ani muscle weight) [2]: 109 ± 8 mg | SV (seminal vesicle weight) [2]: 92 ± 13 mg | VP (ventral prostate weight) [2]: 96 ± 10 mg | FSH (follicle stimulating hormone) [3]: 1206 ± 114 ng/mL | LH (luteinizing hormone) [3]: 104 ± 25 ng/mL | MLA (Levator ani muscle weight) [3]: 108 ± 5 mg | SV (seminal vesicle weight) [3]: 65 ± 5 mg | VP (ventral prostate weight) [3]: 112 ± 10 mg

CCC(=O)O[C@H]1CC[C@H]2[C@@H]3CCC4=CC(=O)CC[C@]4(C)[C@H]3CC[C@]12C [TP, Testosterone propionate]
FSH (follicle stimulating hormone) [4]: 783 ± 167 ng/mL | LH (luteinizing hormone) [4]: 101 ± 36 ng/mL | MLA (Levator ani muscle weight) [4]: 137 ± 7 mg | SV (seminal vesicle weight) [4]: 215 ± 13 mg | VP (ventral prostate weight) [4]: 160 ± 18 mg | FSH (follicle stimulating hormone) [5]: 915 ± 37 ng/mL | LH (luteinizing hormone) [5]: 121 ± 12 ng/mL | MLA (Levator ani muscle weight) [5]: 75 ± 4 mg | SV (seminal vesicle weight) [5]: 69 ± 3 mg | VP (ventral prostate weight) [5]: 108 ± 6 mg

C[C@]12CC[C@H]3[C@@H](CCC4=CC(=O)CC[C@@]43C)[C@@H]1CCC[C@@H]2C(=O)O [Test substance A, 3-oxo-D-homo-androst-4-ene-17aα-carboxylic acid]
FSH (follicle stimulating hormone) [6]: 1268 ± 125 ng/mL | LH (luteinizing hormone) [6]: 283 ± 41 ng/mL | MLA (Levator ani muscle weight) [6]: 118 ± 8 mg | SV (seminal vesicle weight) [6]: 157 ± 15 mg | VP (ventral prostate weight) [6]: 116 ± 11 mg

COC(=O)[C@H]1CCC[C@H]2[C@@H]3CCC4=C(Cl)C(=O)CC[C@]4(C)[C@H]3CC[C@]12C [Test substance D, methyl 4-chloro-3-oxo-D-homo-androst-4-ene-17aβ-carboxylate]
FSH (follicle stimulating hormone) (D sc 10 mg/kg + T sc 0.5 mg/kg): 1325 ± 93 ng/mL | LH (luteinizing hormone) (D sc 10 mg/kg + T sc 0.5 mg/kg): 244 ± 45 ng/mL | MLA (Levator ani muscle weight) (D sc 10 mg/kg + T sc 0.5 mg/kg): 83 ± 6 mg | SV (seminal vesicle weight) (D sc 10 mg/kg + T sc 0.5 mg/kg): 51 ± 9 mg | VP (ventral prostate weight) (D sc 10 mg/kg + T sc 0.5 mg/kg): 95 ± 10 mg

C[C@]12CCC(=O)C=C1CC[C@@H]1[C@@H]2CC[C@@]2(C)[C@H]1CC=C[C@@]21CCCO1 [Test substance F, 4,5-dihydrospiro[furan-2(3H),17'a(β1)-D-homo-androsta-4,16-dien]-3'-one]
LH (luteinizing hormone) (F sc 10 mg/kg + T sc 0.5 mg/kg): 88 ± 15 ng/mL | MLA (Levator ani muscle weight) (F sc 10 mg/kg + T sc 0.5 mg/kg): 105 ± 6 mg | SV (seminal vesicle weight) (F sc 10 mg/kg + T sc 0.5 mg/kg): 66 ± 4 mg | VP (ventral prostate weight) (F sc 10 mg/kg + T sc 0.5 mg/kg): 93 ± 10 mg

COC(=O)C1=CCC[C@H]2[C@@H]3CCC4=CC(=O)CC[C@]4(C)[C@H]3CC[C@]12C [Test substance L, methyl 3-oxo-D-homo-androsta-4,17-diene-17a-carboxylate]
MLA (Levator ani muscle weight) (L po 30 mg/kg + T sc 0.5 mg/kg): 88 ± 17 mg | SV (seminal vesicle weight) (L po 30 mg/kg + T sc 0.5 mg/kg): 68 ± 13 mg | VP (ventral prostate weight) (L po 30 mg/kg + T sc 0.5 mg/kg): 81 ± 16 mg | FSH (follicle stimulating hormone) [7]: 1099 ± 94 ng/mL | LH (luteinizing hormone) [7]: 163 ± 30 ng/mL | MLA (Levator ani muscle weight) [7]: 67 ± 6 mg | SV (seminal vesicle weight) [7]: 52 ± 1 mg | VP (ventral prostate weight) [7]: 80 ± 6 mg
